Reference: the NIST ThermoML archive (doi:10.1016/j.jct.2017.03.022)
Numbers after ± are expanded uncertainties.

Test: xn = mol fraction of the nth substance listed
Details: 101 kPa, Liquid; for speed of sound: Frequency=3 MHz, Single path-length method; for mass density: Vibrating tube method

O=C1CCCN1 [2-pyrrolidinone] + CC(O)CO
Details | mass density, 303.15 K [kg/m3] | mass density, 308.15 K [kg/m3] | mass density, 313.15 K [kg/m3] | mass density, 318.15 K [kg/m3] | mass density, 323.15 K [kg/m3] | speed of sound, 303.15 K [m/s] | speed of sound, 308.15 K [m/s] | speed of sound, 313.15 K [m/s] | speed of sound, 318.15 K [m/s] | speed of sound, 323.15 K [m/s]
x1 = 0.0994 | 1038.42 ± 1.1 | 1034.26 ± 1 | 1030.26 ± 1 | 1026.14 ± 1 | 1021.99 ± 1 | 1511.8 ± 1.3 | 1497.1 ± 1.3 | 1482.2 ± 1.3 | 1467.6 ± 1.3 | 1453 ± 1.3
x1 = 0.1962 | 1047.15 ± 1 | 1042.74 ± 1 | 1038.53 ± 1 | 1034.14 ± 1 | 1029.74 ± 1 | 1526.8 ± 1.3 | 1511.5 ± 1.3 | 1496.4 ± 1.3 | 1481.6 ± 1.3 | 1466.5 ± 1.3
x1 = 0.3038 | 1056.3 ± 1 | 1051.69 ± 1 | 1047.29 ± 1 | 1042.69 ± 1 | 1038.13 ± 1 | 1543.7 ± 1.3 | 1528.1 ± 1.3 | 1512.5 ± 1.3 | 1497.3 ± 1.3 | 1481.7 ± 1.3
x1 = 0.4148 | 1065.17 ± 1 | 1060.55 ± 1 | 1055.91 ± 1 | 1051.2 ± 1 | 1046.49 ± 1 | 1560.1 ± 1.3 | 1544.3 ± 1.3 | 1528.5 ± 1.3 | 1513.2 ± 1.3 | 1497.3 ± 1.3
x1 = 0.5021 | 1071.72 ± 1 | 1067.1 ± 1 | 1062.38 ± 1 | 1057.63 ± 1 | 1052.9 ± 1 | 1571.9 ± 1.3 | 1555.9 ± 1.3 | 1540 ± 1.3 | 1524.6 ± 1.3 | 1508.5 ± 1.3
x1 = 0.5951 | 1078.36 ± 1 | 1073.71 ± 1 | 1069.03 ± 1 | 1064.29 ± 1 | 1059.57 ± 1 | 1583.5 ± 1.3 | 1567.3 ± 1.3 | 1551.2 ± 1.3 | 1535.7 ± 1.3 | 1519.4 ± 1.3
x1 = 0.6891 | 1084.67 ± 1 | 1080.01 ± 1 | 1075.46 ± 1 | 1070.79 ± 1 | 1066.14 ± 1 | 1594.1 ± 1.2 | 1577.5 ± 1.2 | 1561.4 ± 1.2 | 1545.9 ± 1.2 | 1529.3 ± 1.2
x1 = 0.7994 | 1091.64 ± 1 | 1087.08 ± 1 | 1082.66 ± 1 | 1078.14 ± 1 | 1073.64 ± 1 | 1604.8 ± 1.2 | 1588.2 ± 1.2 | 1572 ± 1.2 | 1556.7 ± 1.2 | 1539.9 ± 1.2
x1 = 0.8908 | 1097.03 ± 1 | 1092.6 ± 1 | 1088.37 ± 1 | 1084.03 ± 1 | 1079.69 ± 1 | 1612.3 ± 1.2 | 1595.6 ± 1.2 | 1579.6 ± 1.2 | 1563.9 ± 1.2 | 1546.7 ± 1.2
x1 = 1 | 1103.07 ± 1 | 1098.99 ± 1 | 1094.9 ± 1 | 1090.82 ± 1 | 1086.75 ± 1 | 1617.7 ± 1.2 | 1601.3 ± 1.2 | 1585.4 ± 1.2 | 1570.4 ± 1.2 | 1553.5 ± 1.2

OCCCO [propan-1,3-diol] + O=C1CCCN1
Details | mass density, 303.15 K [kg/m3] | mass density, 308.15 K [kg/m3] | mass density, 313.15 K [kg/m3] | mass density, 318.15 K [kg/m3] | mass density, 323.15 K [kg/m3] | speed of sound, 303.15 K [m/s] | speed of sound, 308.15 K [m/s] | speed of sound, 313.15 K [m/s] | speed of sound, 318.15 K [m/s] | speed of sound, 323.15 K [m/s]
x2 = 0 | 1046.56 ± 1 | 1043.43 ± 1 | 1040.28 ± 1 | 1037.11 ± 1 | 1033.92 ± 1 | 1617.6 ± 1.3 | 1606.2 ± 1.3 | 1594.8 ± 1.3 | 1583.5 ± 1.3 | 1572.1 ± 1.3
x2 = 0.1108 | 1052.98 ± 1 | 1049.7 ± 1 | 1046.4 ± 1 | 1043.08 ± 1 | 1039.74 ± 1 | 1619.8 ± 1.3 | 1607.5 ± 1.3 | 1595.3 ± 1.3 | 1583.4 ± 1.3 | 1571.2 ± 1.3
x2 = 0.2172 | 1059.11 ± 1 | 1055.69 ± 1 | 1052.25 ± 1 | 1048.8 ± 1 | 1045.34 ± 1 | 1621.2 ± 1.3 | 1608.3 ± 1.3 | 1595.4 ± 1.3 | 1582.9 ± 1.3 | 1569.9 ± 1.3
x2 = 0.3044 | 1064.1 ± 1 | 1060.58 ± 1 | 1057.04 ± 1 | 1053.49 ± 1 | 1049.93 ± 1 | 1621.9 ± 1.2 | 1608.6 ± 1.2 | 1595.3 ± 1.2 | 1582.3 ± 1.2 | 1568.7 ± 1.2
x2 = 0.4174 | 1070.53 ± 1 | 1066.89 ± 1 | 1063.24 ± 1 | 1059.57 ± 1 | 1055.89 ± 1 | 1622.4 ± 1.2 | 1608.5 ± 1.2 | 1594.6 ± 1.2 | 1581.1 ± 1.2 | 1566.8 ± 1.2
x2 = 0.5076 | 1075.64 ± 1 | 1071.91 ± 1 | 1068.17 ± 1 | 1064.41 ± 1 | 1060.65 ± 1 | 1622.4 ± 1.2 | 1608 ± 1.2 | 1593.7 ± 1.2 | 1579.9 ± 1.2 | 1565.1 ± 1.2
x2 = 0.6177 | 1081.83 ± 1 | 1078 ± 1 | 1074.17 ± 1 | 1070.32 ± 1 | 1066.47 ± 1 | 1621.9 ± 1.2 | 1607 ± 1.2 | 1592.3 ± 1.2 | 1578.2 ± 1.2 | 1562.8 ± 1.2
x2 = 0.6909 | 1085.92 ± 1 | 1082.04 ± 1 | 1078.15 ± 1 | 1074.25 ± 1 | 1070.34 ± 1 | 1621.4 ± 1.2 | 1606.2 ± 1.2 | 1591.2 ± 1.2 | 1576.8 ± 1.2 | 1561.1 ± 1.2
x2 = 0.8139 | 1092.77 ± 1 | 1088.8 ± 1 | 1084.83 ± 1 | 1080.85 ± 1 | 1076.87 ± 1 | 1620.2 ± 1.2 | 1604.5 ± 1.2 | 1589 ± 1.2 | 1574.4 ± 1.2 | 1558.2 ± 1.2
x2 = 0.8736 | 1096.07 ± 1 | 1092.07 ± 1 | 1088.06 ± 1 | 1084.05 ± 1 | 1080.04 ± 1 | 1619.5 ± 1.2 | 1603.5 ± 1.2 | 1587.9 ± 1.2 | 1573.1 ± 1.2 | 1556.8 ± 1.2
